Here are results for 27 molecules from US10604526B2, “Chemokine receptor modulators and uses thereof” (RAPT THERAPEUTICS, INC., priority 2016, dated 2020).

The experiment deals with T1, hCCR4 (Homo sapiens, UniProt P51679).
T1 sequence (P51679 1-360): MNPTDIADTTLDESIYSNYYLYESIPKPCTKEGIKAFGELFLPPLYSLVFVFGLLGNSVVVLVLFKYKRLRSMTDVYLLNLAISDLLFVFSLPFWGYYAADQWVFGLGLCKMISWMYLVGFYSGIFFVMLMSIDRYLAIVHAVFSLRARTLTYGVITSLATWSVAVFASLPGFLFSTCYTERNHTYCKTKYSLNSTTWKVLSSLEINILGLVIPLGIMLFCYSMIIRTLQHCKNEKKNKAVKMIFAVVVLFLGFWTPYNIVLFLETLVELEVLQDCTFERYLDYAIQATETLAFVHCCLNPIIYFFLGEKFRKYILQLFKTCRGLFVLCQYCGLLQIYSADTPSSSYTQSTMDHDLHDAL
The experiment is described as follows: Calcium flux assay. It counts as cell-based. Particulars: Chem5-hCCR4 cells, CCL22 at EC80 of 1.5 nM, FLIPR Calcium 6 dye; read-out: Potency (IC50). As for the experimental part: Calcium Flux Assay. Compounds were evaluated in a calcium flux assay substantially performed as follows. Chem5-hCCR4 cells (EMD Millipore, Hayward, Calif.; HTS009C) were cultured under standard conditions and frozen in aliquots of 10×10^6 cells/mL. The day prior to compound testing, a vial was rapidly thawed and pipetted into 20 mL media (DMEM+10% FBS+1% Pen-Strep+1% L-glutamine). Cells were harvested by centrifugation and re-suspended in fresh culture medium. 25 μL of cell suspension was seeded into 384-well plates (Corning, Tewksbury, Mass.; CellBind with black wall/clear bottom). The plates were centrifuged at 300 g for 10 seconds and incubated overnight at 37° C. and 5% CO2. The day of compound testing, media was removed from the plates and 25 μL serum free media was added to each well. Plates were returned to the incubator for 2 h. 25 μL assay buffer (Hank's balanced salt solution+20 mM HEPES pH 7.4) containing FLIPR Calcium 6 dye (Molecular Devices, Sunnyvale, Calif.; # R8191) and probenecid (2.5 mM) was added to each well and incubated at 37° C. and 5% CO2 for 2 h. Compounds in DMSO were added to the plates using an HP D300e digital dispenser, and all wells were normalized to contain 0.25 μL (0.5%) DMSO. Plates were incubated for 1 hour at 37° C. and 5% CO2. CCL22 (Peprotech; Rockyhill, N.J.) was diluted in assay buffer containing 0.1% BSA to 7.5 nM (corresponding to 5×EC80 of 1.5 nM).
Assay plates and working solution of CCL22 were transferred to the FlexStation plate reader (Molecular Devices) at 37° C. for 5 min of equilibration. Fluorescence recordings at 485 excitation/525 emission were performed at 2.5 second intervals. At t=16 seconds, 12.5 μL of CCL22 solution was added to each well and reads continued for 30 seconds at 2.5 second intervals. The minimum fluorescence (Fmin) was calculated by averaging the reads prior to ligand addition and the change in fluorescence (ΔF) was calculated by subtracting the Fmin from the average of the reads following ligand addition. The response ΔF/Fmin was plotted as a function of the compound concentration and the IC50 values were determined by non-linear regression analysis using a 4-parameter fit in either PRISM software (GraphPad; La Jolla, Calif.) or Dotmatics Browser.

On to `C[C@H](c1ccc(Cl)cc1Cl)n1nc(C#N)c2ncc(N3CC([C@@H]4CCN(CCCO)C4)C3)nc21` (single isomer, unassigned) [Example 94], for which the concentration for half-maximal inhibition (IC50) was in the range of 100 to 500 nM. Turning to `CC(=O)NCCN1CCC[C@@H](C2CN(c3cnc4c(C(F)(F)F)nn([C@H](C)c5ccc(Cl)cc5Cl)c4n3)C2)C1` (single isomer, unassigned) [Example 86], the IC50 was in the range of 100 to 500 nM. With `C[C@H](c1ccc(Cl)cc1Cl)n1nc(C(N)=O)c2ncc(N3CC([C@@H]4CCCN(CCCC(=O)O)C4)C3)nc21` (single isomer, unassigned) [Example 32] the figure was 100 to 500 nM. For `C[C@H](c1ccc(Cl)cc1Cl)n1nc(C(F)(F)F)c2ncc(N3CC([C@H]4CCCN(CCCS(C)(=O)=O)C4)C3)nc21` (single isomer, unassigned) [Example 116] the value was under 100 nM. For `CC(c1ccc(Cl)cc1Cl)n1nc(C#N)c2ncc(N3CC([C@@H]4CCCN(CCO)C4)C3)nc21` (single isomer, unassigned) [Example 36] the value was under 100 nM.

As to `C[C@H](c1ccc(Cl)cc1Cl)n1nc(C(F)(F)F)c2ncc(N3CC([C@H]4CCCN(CCO)C4)C3)nc21` (single isomer, unassigned) [Example 43], the IC50 was under 100 nM. In the case of `C[C@H](c1ccc(Cl)cc1Cl)n1nc(C#N)c2ncc(N3CC([C@@H]4CCCN(CC(C)(C)O)C4)C3)nc21` (single isomer, unassigned) [Example 70], the IC50 is under 100 nM.

As for `CC(=O)NCCN1CCCC(C2CN(c3cnc4c(C(F)(F)F)nn([C@H](C)c5ccc(Cl)cc5Cl)c4n3)C2)C1` (mixture of isomers) [Example 45, N-(2-((R)-3-(1-(1-((R)-1-(2,4-Dichlorophenyl)ethyl)-3-(trifluoromethyl)-1H-pyrazolo[3,4-b]pyrazin-6-yl)azetidin-3-yl)piperidin-1-yl)ethyl)acetamide and N-(2-((S)-3-(1-(1-((R)-1-(2,4-dichlorophenyl)ethyl)-3-(trifluoromethyl)-1H-pyrazolo[3,4-b]pyrazin-6-yl)azetidin-3-yl)piperidin-1-yl)ethyl)acetamide], the IC50 was 100 to 500 nM. As to “1-((R)-1-(2,4-Dichlorophenyl)ethyl)-6-(3-((S)-1-(2-hydroxyethyl)piperidin-3-yl)azetidin-1-yl)-1H-pyrazolo[3,4-b]pyrazine-3-carbonitrile and 1-((S)-1-(2,4-dichlorophenyl)ethyl)-6-(3-((S)-1-(2-hydroxyethyl)piperidin-3-yl)azetidin-1-yl)-1H-pyrazolo[3,4-b]pyrazine-3-carbonitrile [Example 34]”, the IC50 is under 100 nM. For `C[C@H](c1ccc(Cl)cc1Cl)n1nc(C#N)c2ncc(N3CC([C@@H]4CCCN(Cc5ncc[nH]5)C4)C3)nc21` (single isomer, unassigned) [Example 81] the value was 100 to 500 nM; for `C[C@H](c1ccc(Cl)cc1Cl)n1nc(C(F)(F)F)c2ncc(N3CC(C4CCCN(CCO)C4)C3)nc21` (mixture of isomers) [Example 42, 2-((R)-3-(1-(1-((R)-1-(2,4-Dichlorophenyl)ethyl)-3-(trifluoromethyl)-1H-pyrazolo[3,4-b]pyrazin-6-yl)azetidin-3-yl)piperidin-1-yl)ethan-1-ol and 2-((S)-3-(1-(1-((R)-1-(2,4-dichlorophenyl)ethyl)-3-(trifluoromethyl)-1H-pyrazolo[3,4-b]pyrazin-6-yl)azetidin-3-yl)piperidin-1-yl)ethan-1-ol], 100 to 500 nM.

With `Cc1nn([C@H](C)c2ccc(Cl)cc2Cl)c2nc(N3CC([C@H]4CCCN(CCC(=O)O)C4)C3)cnc12` (single isomer, unassigned) [Example 8], the IC50 is under 100 nM.

For `Cc1nn([C@H](C)c2ccc(Cl)cc2Cl)c2nc(N3CC([C@@H]4CCCN(CCNS(C)(=O)=O)C4)C3)cnc12` (single isomer, unassigned) [Example 98], the IC50 lay in the range of 100 to 500 nM. With `Cc1nn([C@H](C)c2ccc(Cl)cc2Cl)c2nc(N3CC([C@@H]4CCCN(CC(=O)O)C4)C3)cnc12` (single isomer, unassigned) [Example 2] the figure was over 500 nM; with `CC(O)CN1CCC[C@@H](C2CN(c3cnc4c(C#N)nn([C@H](C)c5ccc(Cl)cc5Cl)c4n3)C2)C1` (single isomer, unassigned) [Example 31], under 100 nM. For `C[C@H](c1ccc(Cl)cc1Cl)n1nc(C#N)c2ncc(N3CC([C@H]4CCCN(CCCC(=O)N(C)C)C4)C3)nc21` (single isomer, unassigned) [Example 75] the value was under 100 nM. As to `Cc1nn([C@H](C)c2ccc(Cl)cc2Cl)c2nc(N3CC([C@H]4CCCN(CCCS(C)(=O)=O)C4)C3)cnc12` (single isomer, unassigned) [Example 114], the IC50 is under 100 nM. `CNC(=O)CCCN1CCC[C@H](C2CN(c3cnc4c(C#N)nn([C@H](C)c5ccc(Cl)cc5Cl)c4n3)C2)C1` (single isomer, unassigned) [Example 69]: the half-maximal inhibitory concentration (IC50) is under 100 nM. Regarding `Cc1nn([C@H](C)c2ccc(Cl)cc2Cl)c2nc(N3CC(C4CCCN(C5CC(C(=O)O)C5)C4)C3)cnc12` (mixture of isomers) [Example 16], the IC50 is over 500 nM. For `CC(O)CN1CCC[C@H](C2CN(c3cnc4c(C#N)nn([C@H](C)c5ccc(Cl)cc5Cl)c4n3)C2)C1` (single isomer, unassigned) [Example 29] the value was under 100 nM; for `C[C@H](c1ccc(Cl)cc1Cl)n1nc(C#N)c2ncc(N3CC([C@@H]4CCCN(CCCC(N)=O)C4)C3)nc21` (single isomer, unassigned) [Example 79], 100 to 500 nM. As to `Cc1nn([C@H](C)c2ccc(Cl)cc2Cl)c2nc(N3CC([C@H]4CCCN(CCS(N)(=O)=O)C4)C3)cnc12` (single isomer, unassigned) [Example 6], the IC50 is under 100 nM. On to “1-((R)-1-(2,4-dichlorophenyl)ethyl)-6-(3-((S)-1-((R)-4-hydroxybutan-2-yl)piperidin-3-yl)azetidin-1-yl)-1H-pyrazolo[3,4-b]pyrazine-3-carbonitrile and 1-((R)-1-(2,4-dichlorophenyl)ethyl)-6-(3-((S)-1-((S)-4-hydroxybutan-2-yl)piperidin-3-yl)azetidin-1-yl)-1H-pyrazolo[3,4-b]pyrazine-3-carbonitrile [Example 83]”, for which the concentration for half-maximal inhibition (IC50) is 100 to 500 nM. For `C[C@H](c1ccc(Cl)cc1Cl)n1nc(C(F)(F)F)c2ncc(N3CC(C4CCCN(CCNS(C)(=O)=O)C4)C3)nc21` (mixture of isomers) [Example 46, N-(2-((R)-3-(1-(1-((R)-1-(2,4-Dichlorophenyl)ethyl)-3-(trifluoromethyl)-1H-pyrazolo[3,4-b]pyrazin-6-yl)azetidin-3-yl)piperidin-1-yl)ethyl)methanesulfonamide and N-(2-((S)-3-(1-(1-((R)-1-(2,4-dichlorophenyl)ethyl)-3-(trifluoromethyl)-1H-pyrazolo[3,4-b]pyrazin-6-yl)azetidin-3-yl)piperidin-1-yl)ethyl)methanesulfonamide] the value was 100 to 500 nM; for `CC(C)S(=O)(=O)NCCN1CCCC(C2CN(c3cnc4c(C(F)(F)F)nn([C@H](C)c5ccc(Cl)cc5Cl)c4n3)C2)C1` (mixture of isomers) [Example 47, N-(2-((R)-3-(1-(1-((R)-1-(2,4-Dichlorophenyl)ethyl)-3-(trifluoromethyl)-1H-pyrazolo[3,4-b]pyrazin-6-yl)azetidin-3-yl)piperidin-1-yl)ethyl)propane-2-sulfonamide and N-(2-((S)-3-(1-(1-((R)-1-(2,4-dichlorophenyl)ethyl)-3-(trifluoromethyl)-1H-pyrazolo[3,4-b]pyrazin-6-yl)azetidin-3-yl)piperidin-1-yl)ethyl)propane-2-sulfonamide], under 100 nM. For `CC(O)CN1CCC[C@@H](C2CN(c3cnc4c(C#N)nn([C@H](C)c5ccc(Cl)cc5Cl)c4n3)C2)C1` (single isomer, unassigned) [Example 30] the value was under 100 nM; for `CC(C)C(=O)NCCN1CCC[C@@H](C2CN(c3cnc4c(C(F)(F)F)nn([C@H](C)c5ccc(Cl)cc5Cl)c4n3)C2)C1` (single isomer, unassigned) [Example 88], 100 to 500 nM.

In general, IC50 refers to the concentration needed to halve the response being measured.
